According to patent US9440930B2, “Substituted bicyclic dihydropyrimidinones and their use as inhibitors of neutrophil elastase activity” (Boehringer Ingelheim International GmbH, priority 2014, dated 2016):

How the values were obtained:
[1] = molecular target: hERG (human ether-a-go-go-related gene) potassium channel (Homo sapiens, UniProt Q12809); assay: hERG inhibition; type: cell-based
hERG potassium channel = hERG potassium channel (Homo sapiens, UniProt Q12809); assay: hERG inhibition; type: cell-based; conditions: human; at 10 μM
human hepatocytes = assay: Metabolic stability with human hepatocytes; type: in vitro ADME; conditions: human hepatocyte suspension, 1 μM compound, well stirred model
Procedure: Assay for the Determination of Metabolic Stability with Human Hepatocytes
The metabolic degradation of the test compound is assayed in a human hepatocyte suspension. Human hepatocytes (typically cryopreserved) are incubated in an appropriate buffer system (e.g. Dulbecco's modified eagle medium plus 3.5 μg glucagon/500 mL, 2.5 mg insulin/500 mL and 3.75 mg/500 mL hydrocortison) containing 5% species serum. Following a (typically) 30 min preincubation in an incubator (37° C., 10% CO2), 5 μl of test compound solution (80 μM; from 2 min stock solution in DMSO diluted 1:25 with medium) are added into 395 μl hepatocyte suspension (cell density in the range 0.25-5*10^6 cells/mL, typically 1*10^6 cells/mL; final concentration of test compound 1 μM, final DMSO concentration 0.05%). The cells are incubated for six hours (incubator, orbital shaker) and samples (25 μl) are taken at 0, 0.5, 1, 2, 4 and 6 hours. Samples are transferred into acetonitrile and pelleted by centrifugation (5 min). The supernatant is transferred to a new 96-deepwell plate, evaporated under nitrogen and resuspended. The decline of parent compound is analyzed by LC-MS/MS. […]

cytochrome P450 2C8 = molecular target: T1, cytochrome P450 2C8 (Homo sapiens, UniProt P10632); assay: Cytochrome P450 2C8 inhibition; type: in vitro ADME; conditions: human liver microsomes, Amodiaquine deethylation
T1 construct: is assayed at 37° C. with human liver microsomes; from tissue; host or cells: human liver microsomes
T1 sequence (P10632 1-490): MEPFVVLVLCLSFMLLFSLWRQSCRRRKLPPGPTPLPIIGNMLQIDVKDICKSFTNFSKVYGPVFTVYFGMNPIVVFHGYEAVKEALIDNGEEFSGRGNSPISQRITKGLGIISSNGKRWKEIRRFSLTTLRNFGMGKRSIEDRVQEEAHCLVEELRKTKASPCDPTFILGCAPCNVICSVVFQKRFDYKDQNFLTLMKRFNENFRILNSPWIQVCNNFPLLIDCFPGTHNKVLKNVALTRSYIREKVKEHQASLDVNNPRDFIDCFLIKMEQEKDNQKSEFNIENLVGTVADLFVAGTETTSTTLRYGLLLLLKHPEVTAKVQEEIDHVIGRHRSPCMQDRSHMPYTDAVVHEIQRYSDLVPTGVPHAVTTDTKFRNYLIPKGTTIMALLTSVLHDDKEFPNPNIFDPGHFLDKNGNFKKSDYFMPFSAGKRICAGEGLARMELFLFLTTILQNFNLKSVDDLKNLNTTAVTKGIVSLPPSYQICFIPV
Source text: Assay for Determination of Cytochrome P450 2C8 Inhibition

[2] = Drug transport across human Caco-2 cells; type: in vitro ADME; conditions: pH 7.2, 37° C.
Source text: Assay for Determination of Drug Transport Across Human Caco-2 Cells
The assay provides information on the potential of a compound to pass the cell membrane, on the extent of oral absorption as well as on whether the compound is actively transported by uptake and/or efflux transporters. For the measurement of permeability across polarized, confluent human cancer colon carcinoma cells 2 (Caco-2) cell monolayers grown on permeable filter supports are used as the in vitro absorption model.
Apparent permeability coefficients (PE) of the compounds across the Caco-2 monolayers are measured (pH 7.2, 37° C.) in apical-to-basal (AB) (absorptive) and basal-to-apical (BA) (secretory) transport direction. AB permeability (PEAB) represents drug absorption from the intestine into the blood and BA permeability (PEBA) drug secretion from the blood back into the intestine via both passive permeability as well as active transport mechanisms mediated by efflux and uptake transporters that are expressed on the Caco-2 cells. The compounds are assigned to permeability/absorption classes by comparison of the AB permeabilities with the AB permeabilities of reference compounds with known in vitro permeability and oral absorption in the human. Identical or similar permeabilities in both transport directions indicate passive permeation, vectorial permeability points to additional active transport mechanisms. […] Active transport is concentration-dependently saturable.
Caco-2 cells (1-2*10^5 cells/cm^2 area) are seeded on filter inserts (Costar transwell polycarbonate or PET filters, 0.4 μm pore size) and cultured (DMEM) for 10 to 25 days. Compounds are dissolved in appropriate solvent (like DMSO, 1-20 min stock solutions). Stock solutions are diluted with HTP-4 buffer (128.13 min NaCl, 5.36 min KCl, 1 mM MgSO4, 1.8 min CaCl2, 4.17 min NaHCO3, 1.19 min Na2HPO4×7H2O, 0.41 mM NaH2PO4×H2O, 15 min HEPES, 20 min glucose, pH 7.2) to prepare the transport solutions (typically 10 μM compound, final DMSO<=0.5%). The transport solution (TL) is applied to the apical or basolateral donor side for measuring A-B or B-A permeability (3 filter replicates), respectively. The receiver side contains HTP-4 buffer supplemented with 2% BSA. Samples are collected at the start and end of experiment from the donor and at various time intervals for up to 2 hours also from the receiver side for concentration measurement by LC-MS/MS or scintillation counting. Sampled receiver volumes are replaced with fresh receiver solution.

[3] = Metabolic stability with human liver microsomes; type: in vitro ADME; conditions: pooled human liver microsomes, pH 7.6; human liver microsomes 1 mg/ml, 1 μM compound, 37° C., NADPH; read-out: t1/2 INVITRO
cytochrome P450 2C19 = molecular target: T2, cytochrome P450 2C19 (Homo sapiens, UniProt P33261); assay: Cytochrome P450 2C19 inhibition; type: in vitro ADME; conditions: human liver microsomes, (S)-Mephenytoin hydroxylation
T2 construct: is assayed at 37° C. with human liver microsomes; from tissue; host or cells: human liver microsomes
Source text: Assay for Determination of Cytochrome P450 2C19 Inhibition

T2 sequence (P33261 whole entry): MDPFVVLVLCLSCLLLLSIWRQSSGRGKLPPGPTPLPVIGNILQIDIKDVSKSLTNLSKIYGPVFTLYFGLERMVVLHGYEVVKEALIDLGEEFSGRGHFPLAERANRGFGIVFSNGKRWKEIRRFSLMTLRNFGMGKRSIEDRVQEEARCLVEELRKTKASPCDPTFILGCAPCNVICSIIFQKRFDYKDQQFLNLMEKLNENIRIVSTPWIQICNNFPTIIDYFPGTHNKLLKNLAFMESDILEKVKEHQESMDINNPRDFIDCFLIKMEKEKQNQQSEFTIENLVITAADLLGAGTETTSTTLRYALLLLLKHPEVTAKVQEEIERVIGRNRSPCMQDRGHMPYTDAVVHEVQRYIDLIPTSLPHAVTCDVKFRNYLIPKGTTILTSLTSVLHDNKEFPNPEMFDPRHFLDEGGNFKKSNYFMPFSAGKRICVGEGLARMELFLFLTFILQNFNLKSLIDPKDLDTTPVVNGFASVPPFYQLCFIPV
Chain of hERG (human ether-a-go-go-related gene) potassium channel (Q12809 whole entry): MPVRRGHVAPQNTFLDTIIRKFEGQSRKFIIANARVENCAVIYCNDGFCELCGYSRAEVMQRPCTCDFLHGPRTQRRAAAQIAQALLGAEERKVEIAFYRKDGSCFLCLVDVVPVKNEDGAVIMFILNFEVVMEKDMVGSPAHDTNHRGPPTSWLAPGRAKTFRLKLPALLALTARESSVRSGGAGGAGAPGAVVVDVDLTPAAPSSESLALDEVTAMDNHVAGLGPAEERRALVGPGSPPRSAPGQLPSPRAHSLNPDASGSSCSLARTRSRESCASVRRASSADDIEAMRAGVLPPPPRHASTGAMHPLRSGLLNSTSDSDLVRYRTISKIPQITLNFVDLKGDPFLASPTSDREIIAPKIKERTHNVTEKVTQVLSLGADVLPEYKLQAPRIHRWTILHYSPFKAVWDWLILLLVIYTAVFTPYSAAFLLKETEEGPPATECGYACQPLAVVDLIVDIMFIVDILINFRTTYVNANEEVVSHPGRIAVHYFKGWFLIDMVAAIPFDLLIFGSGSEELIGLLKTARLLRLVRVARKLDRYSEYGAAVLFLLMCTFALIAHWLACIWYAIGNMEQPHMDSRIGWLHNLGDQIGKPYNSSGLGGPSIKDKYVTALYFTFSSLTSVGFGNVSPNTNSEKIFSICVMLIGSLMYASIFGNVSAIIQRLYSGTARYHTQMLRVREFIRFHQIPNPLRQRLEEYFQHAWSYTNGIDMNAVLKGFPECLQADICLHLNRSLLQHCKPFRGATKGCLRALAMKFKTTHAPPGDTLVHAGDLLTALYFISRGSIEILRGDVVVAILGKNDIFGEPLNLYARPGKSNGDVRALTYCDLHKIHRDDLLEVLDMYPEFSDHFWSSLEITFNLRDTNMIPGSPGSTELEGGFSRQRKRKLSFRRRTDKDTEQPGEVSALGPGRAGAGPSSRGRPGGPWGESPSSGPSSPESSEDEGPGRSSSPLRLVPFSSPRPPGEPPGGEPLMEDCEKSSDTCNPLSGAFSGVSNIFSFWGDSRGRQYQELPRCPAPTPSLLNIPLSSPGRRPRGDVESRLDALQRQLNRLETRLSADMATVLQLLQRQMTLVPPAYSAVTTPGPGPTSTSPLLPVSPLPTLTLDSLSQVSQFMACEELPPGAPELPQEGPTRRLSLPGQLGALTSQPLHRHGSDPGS
Chain of hERG potassium channel (Q12809 whole entry): as above

predicted hepatic in vivo blood clearance (human hepatocytes): 5 % human hepatic blood flow
IC50 (cytochrome P450 2C8): > 50 µM
Papp A→B at 10 µM ([2]; apical-to-basal, read-out: PEAB): 19 ×10⁻⁶ cm/s
Papp B→A at 10 µM ([2]; basal-to-apical, read-out: PEBA): 97 ×10⁻⁶ cm/s
half-life at 1 μM [3]: > 2.17 h
IC50 (cytochrome P450 2C19): > 50 µM
Compound: CN1C(=O)N(c2cccc(C(F)(F)F)c2)C2=C(C(=O)CCC2)[C@H]1c1ccc(C#N)cc1[S+](C)[O-] (single isomer, unassigned) [Example 2.2A, 3-Methanesulfinyl-4-[3-methyl-2,5-dioxo-1-(3-trifluoromethyl-phenyl)-1,2,3,4,5,6,7,8-octahydro-quinazolin-4-yl]-benzonitrile]
IC50 [1]: > 30 µM
inhibition at 10 µM (hERG potassium channel): 9%
